Assay results published in paper PMC9237094, “Efficient transdermal delivery of functional protein cargoes by a hydrophobic peptide MTD 1067” (Scientific Reports, 2022).
Where a SMILES comes first, the peptide text is derived from it. [ ]: non-standard residue; d: D form.

Key:
[1] = test system: artificial skin (EpiDermFT); test: Skin penetration in artificial skin model, confocal fluorescence intensity; type: in vitro ADME, human; conditions: FITC-labeled (GHRP-6, des(1-3)IGF-I forms) or rhodamine-labeled (PDGF-BB forms), 0.2 mg/mL, 40 μL, 24 h, 32 °C, 5% CO2, at least three images
Protocol: To evaluate skin permeability using confocal microscopy, des(1-3)IGF-I and MTD-des(1-3)IGF-I were labeled with fluorescein isothiocyanate (FITC), and PDGF-BB and MTD-PDGF-BB were labeled with rhodamine. The labeling reaction was carried out with the molar ratio of protein: FITC (or rhodamine) as 1:10 at 4 °C for 2 h. Excess FITC and rhodamine were removed using a PD-10 desalting column (GE Healthcare, USA). After adjusting the concentrations of FITC-labeled GHRP-6, MTD-GHRP-6, des(1-3)IGF-I, MTD-des(1-3)IGF-I, PDGF-BB, and MTD-PDGF-BB to 0.2 mg/mL, respectively, each labeled solution was applied to the artificial skin (EpiDermFT™, MatTek, USA). […] The fluorescence intensity per equivalent area of the dermal layer was calculated for each confocal image. Quantification analysis using fluorescence intensity was calculated based on the fluorescence intensity of confocal microscopy images. Three confocal microscopy images were obtained per each artificial skin, and the fluorescence intensity values were extracted from five areas of the same size per dermis layer in the microscopy images. The relative intensity was calculated by comparing the signals between the samples with and without MTD conjugation.

[2] = test system: fibroblast cell line NIH 3T3; test: Cell proliferation activity, NIH 3T3 cells (MTT); type: cell-based, mouse; conditions: 48 h, absorbance 570 nm, triplicates of at least two independent experiments
Protocol: The cell proliferation activity of PDGF-BB and MTD-PDGF-BB was measured using NIH 3T3 cells, which were cultured in DMEM medium supplemented with 10% Bovine Calf Serum (BCS; Hyclone, USA) in a 96-well plate at 5 × 10^3 cells/well for 24 h. 100 μL of the protein sample, serially diluted with serum-free DMEM medium, was added to each well and cultured at 37 °C for 48 h. After removing the cell culture medium, 100 μL of a mixed solution of 5 mg/mL MTT and serum-free DMEM at a ratio of 1:10 was added to each well. After 4 h of incubation in a CO2 incubator for 4 h, the reaction solution was removed, and 100 μL of DMSO was added to each well. Formazans were sufficiently dissolved in DMSO using a plate shaker to develop a purple color, which was measured at 570 nm using a microplate reader (Spectra Max, Molecular Devices, USA).

| Molecule | Fluorescence intensity in the dermal layer (permeability) relative to the original cargo [1] | ED50, cell proliferation [2] [µg/mL] |
| --- | --- | --- |
| CSCC[C@H](NC(=O)[C@H](CCCNC(=N)N)NC(=O)[C@H](C)NC(=O)[C@H](C)NC(=O)[C@H](C)NC(=O)[C@@H]1CCCN1C(=O)[C@H](C)NC(=O)[C@@H](NC(=O)[C@H](C)NC(=O)[C@H](C)NC(=O)CNC(=O)CNC(=O)[C@H](CCCCN)NC(=O)[C@@H](Cc1ccccc1)NC(=O)[C@H](Cc1c[nH]c2ccccc12)NC(=O)[C@H](C)NC(=O)[C@@H](Cc1c[nH]c2ccccc12)NC(=O)[C@@H](N)Cc1c[nH]cn1)C(C)C)C(=O)O [MTD-GHRP-6] (H-H[dW]AW[dF]KGGAAVAPAAARM-OH) | approximately five |  |
| PDGF-BB: recombinant human platelet-derived growth factor BB, dimeric protein |  | 0.042 |
